Literature values in US6740655B2, “Pyrimidine carboxamides useful as inhibitors of PDE4 isozymes” (Pfizer Inc, priority 2000, dated 2004).
“Also recorded” adds a separate entry of the source. Read-outs that look alike come from different tables or passages of the source.

Key:
allergic rhinitis = conditions: in vivo
[1] = tested on: late reactions to inhaled allergen; conditions: b18: 9.5 days oral, 15 and 30 mg
[2] = tested on: inflammatory parameters, atopic dermatitis
[3] = tested on: high-affinity rolipram binding site (Sr)
[4] = in vivo
[5] = tested on: antigen-induced eosinophilia; conditions: rat
[6] = doses up to 400 mg, 54 subjects
[7] = rat
tumor cells = conditions: at micromolar concentrations
[8] = tested on: lipopolysaccharide-induced mesenteric blood flow fall
[9] = tested on: lipopolysaccharide-induced bowel erythrocyte extravasation; conditions: rats; b385: pretreatment i.p. 3×, pentoxifylline 5 to 50, rolipram 10 to 30, debufylline 0.1 to 3 mg/kg
[10] = tested on: T-cell mediated hepatic failure; conditions: mouse, in vivo

For O=C(Nc1c(Cl)cncc1Cl)C(=O)c1cn(Cc2ccc(F)cc2)c2ccc(O)cc12 [AWD-12,281], the “activity in rat model of allergic rhinitis” value (allergic rhinitis) is given as “active”.
In the case of COc1ccc([C@H](Cc2ccncc2)c2ccccc2)cc1OC1CCCC1 [CDP840], the “late reactions / late-phase response” value [1] is given as “suppression of late reactions; also recorded: significant inhibition of late-phase response”.
In the case of COc1ccc(C2CNC(=O)NC2)cc1OC1CC2CCC1C2 (stereo not drawn) [CP-80,633], the adverse effects ([2]; human, in vivo) is given as “no adverse effects”, the inflammatory parameters ([2]; topical, bilaterally over eight days, twenty patients) is given as “effectively inhibit all of the inflammatory parameters tested” and the “affinity at the Sr” value [3] is given as “high affinity”. For the same compound, the “emesis / nausea and vomiting” value [4] was “elicit emesis”.
For COc1cc2c3c(c1)C(c1ccccc1)=N[C@@H](NC(=O)c1cc4ccccc4cn1)C(=O)N3CC2 [Cl-1018], the “inhibition of antigen-induced eosinophilia” value [5] is listed as “active”, the “oral potency ED50” value ([5]; oral) is listed as 5 mg/kg and the adverse events [6] is listed as “no adverse events were reported”. For the same compound, the IC50 (PDE4 from U937 cells; read-out: IC50 PDE4 in U937 cells) was 1100 nM and the oral bioavailability [7] was 57%.
In the case of COC(=O)c1ccc2c(=O)n(C3NC(c4ccccc4)c4cc(N)cc5c4N(CC5)C3=O)cnc2c1 (stereo not drawn) [Formula (0.0.53)], the IC50 (PDE4 from U937 cells; read-out: IC50 against the PDE4 from U937 cells) is given as 3 nM.
In the case of Clc1nc2c(N3CCCC3)nc(N3CCNCC3)nc2nc1NCc1ccccc1 [Formula (0.0.55)], the “growth of tumor cells” value (tumor cells) is given as “inhibit the growth of tumor cells”.
In the case of O=S1(=O)CCN(c2nc(NC3CC3)nc(C3CC3)n2)C1 [Formula (0.0.56)], the “relaxant activity in guinea-pig trachea model” value (guinea-pig trachea) is given as “potent relaxant agents”.
For CC1CC1c1nc(NC2CC2)nc(N2CCOCC2)n1 (stereo not drawn) [Formula (0.0.57)], the “relaxant activity in guinea-pig trachea model” value (guinea-pig trachea) is given as “potent relaxant agents”.
In the case of O=C(NC1NC(c2ccccc2)c2cccc3c2N(CC3)C1=O)c1ccncc1 (stereo not drawn) [PD-168787], the “inhibition of antigen-induced eosinophilia” value [5] is listed as “activity”.
In the case of COc1ccc(CC2CNC(=O)N2)cc1OC1CCCC1 (stereo not drawn) [Ro 20-1724], the “adverse systemic or cutaneous effects” value (psoriatic lesions; in vivo) is listed as “without adverse systemic or cutaneous effects” and the “effect on psoriatic lesions” value (psoriatic lesions; versus vehicle) is listed as “improve psoriatic lesions”.
In the case of CCCCn1c(=O)c2c(ncn2CC(C)=O)n(CCCC)c1=O [denbufylline], the “intestinal hypoperfusion in dogs” value [8] is given as “attenuated” and the “lipopolysaccharide-induced bowel erythrocyte extravasation” value [9] is given as “attenuated”.
In the case of Cc1[nH]c(=O)c(C#N)cc1-c1ccncc1 [milrinone], the “relaxant activities of isoproterenol and forskolin” value (pulmonary artery rings) is listed as “The same effect has been observed”.
In the case of COc1ccc(C2CNC(=O)C2)cc1OC1CCCC1 (stereo not drawn) [rolipram], the “intestinal hypoperfusion in dogs” value [8] is given as “attenuated”, the “lipopolysaccharide-induced bowel erythrocyte extravasation” value [9] is given as “attenuated” and the “concanavalin A-induced IL4 release” value [10] is given as “suppress”.
